{"source": "paper PMC9456400", "about": "(International Journal of Molecular Sciences, 2022)", "key": {"Huh-7 cells": {"system": "Huh-7 cells", "assay": "Oil Red O and LipidTOX staining of neutral lipids", "assay_type": "cell-based, human", "conditions": "Huh-7, chronic exposure 7 days; silibinin 10 μmol/L as co-treatment with lorlatinib", "description": "We first employed a conventional index of fatty liver disease––the intracellular accumulation of neutral lipids (steatosis)––to confirm the ability of lorlatinib to trigger hypertriglyceridemia and hypercholesteremia.\nFor assessment of neutral lipid formation, cells were washed in PBS, fixed with 4% paraformaldehyde for 30 min, washed in distilled water, and then briefly incubated in 60% isopropanol. Following equilibration, cells were stained with a working solution (60%) of Oil Red O for 20 min. An Oil Red O stock solution was prepared by dissolving 0.35% w/v Oil Red O in 100 mL 100% isopropanol. HCS LipidTOX™ Green Neutral Lipid Stain (Invitrogen; Cat. #H34475) was employed as a second staining cocktail for visualization of intracellular neutral lipids. Formaldehyde fixation and preparing/using the labeling solution was carried out as per the manufacturer’s instructions."}, "[1]": {"conditions": "cited from earlier work"}, "[2]": {"conditions": "single 100 mg oral dose ref 46, 47"}}}
{"molecule": "C[C@H]1Oc2cc(cnc2N)-c2c(nn(C)c2C#N)CN(C)C(=O)c2ccc(F)cc21", "note": "[lorlatinib, (10R)-7-amino-12-fluoro-2,10,16-trimethyl-15-oxo-10,15,16,17-tetrahydro-2H-8,4-(metheno)pyrazolo [4,3-h][2,5,11]-benzoxadiazacyclotetradecine-3-carbonitrile]", "values": [{"measurement": "Accumulation of neutral lipids (lipid droplets)", "setting": "Huh-7 cells", "result": "accumulated large amounts of lipid droplet-like neutral lipids"}, {"measurement": "Fraction metabolized during first-pass hepatic or pre-systemic metabolism", "setting": "[1]; human, in vivo", "result": 12, "unit": "%"}, {"measurement": "Hepatic extraction ratio", "setting": "[1]; human, in vivo", "result": "< 30", "unit": "%"}, {"measurement": "Peak plasma concentration", "setting": "[1]; [2]", "result": "> 2", "unit": "µmol/L"}, {"measurement": "Time to peak plasma concentration", "setting": "[1]; [2]", "result": "0.5 to 4", "unit": "h"}]}
